Measurements as given in paper PMC6704644 (Journal of Experimental & Clinical Cancer Research : CR, 2019).

Target: T1, mPGES-1 (microsomal prostaglandin E synthase-1) (Homo sapiens, UniProt O14684)
T1 construct: gene PTGES
T1 sequence (O14684 1-152): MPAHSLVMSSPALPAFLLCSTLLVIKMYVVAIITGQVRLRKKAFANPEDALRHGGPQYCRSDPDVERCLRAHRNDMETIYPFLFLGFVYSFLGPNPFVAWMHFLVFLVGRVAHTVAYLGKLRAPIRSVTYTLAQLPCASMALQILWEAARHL
Assay: CETSA in U87 cell lysates (temperature- and dose-dependent), plus enzyme activity inhibition IC50
Format: cell-based

IC50: 17.4 µM
SMILES: O=C(/C=C/c1ccc(O)cc1)c1ccc(O)cc1O [ISL, isoliquiritigenin]
